# According to ChEMBL document CHEMBL3400069, “The amide linker in nonpeptide neurotensin receptor ligands plays a key role in calcium signaling at the neurotensin receptor type 2” (Bioorg Med Chem Lett, 2015):
# Activity calls are given as the source filed them. The rule behind the calls is not given here.
# Tests used:
# [1] = molecular target: Neurotensin receptor type 1 (Rattus norvegicus, UniProt P20789); experiment: Displacement of [I125]neurotensin from rat NTS1 overexpressed in CHO-k1 cells by competitive binding Assay; assay type: cell-based
# Chain of Neurotensin receptor type 1 (P20789 whole entry): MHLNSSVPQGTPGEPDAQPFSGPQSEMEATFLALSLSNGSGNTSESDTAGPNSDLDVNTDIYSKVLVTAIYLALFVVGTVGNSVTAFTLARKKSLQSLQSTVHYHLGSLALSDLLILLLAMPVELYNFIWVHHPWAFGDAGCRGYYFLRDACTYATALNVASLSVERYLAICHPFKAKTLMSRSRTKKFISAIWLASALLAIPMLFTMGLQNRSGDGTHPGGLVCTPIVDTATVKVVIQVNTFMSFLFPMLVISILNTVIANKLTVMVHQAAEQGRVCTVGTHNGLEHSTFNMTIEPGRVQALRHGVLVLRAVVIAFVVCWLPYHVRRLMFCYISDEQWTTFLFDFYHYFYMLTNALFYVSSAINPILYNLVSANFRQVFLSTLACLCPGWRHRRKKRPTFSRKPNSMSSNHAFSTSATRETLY
# [2] = molecular target: T1, Neurotensin receptor type 2 (Rattus norvegicus, UniProt Q63384); experiment: Agonist activity at rat NTS2 overexpressed in CHO-k1 cells assessed as calcium mobilization by FLIPR assay; assay type: functional, cell-based
# T1 sequence (Q63384 whole entry): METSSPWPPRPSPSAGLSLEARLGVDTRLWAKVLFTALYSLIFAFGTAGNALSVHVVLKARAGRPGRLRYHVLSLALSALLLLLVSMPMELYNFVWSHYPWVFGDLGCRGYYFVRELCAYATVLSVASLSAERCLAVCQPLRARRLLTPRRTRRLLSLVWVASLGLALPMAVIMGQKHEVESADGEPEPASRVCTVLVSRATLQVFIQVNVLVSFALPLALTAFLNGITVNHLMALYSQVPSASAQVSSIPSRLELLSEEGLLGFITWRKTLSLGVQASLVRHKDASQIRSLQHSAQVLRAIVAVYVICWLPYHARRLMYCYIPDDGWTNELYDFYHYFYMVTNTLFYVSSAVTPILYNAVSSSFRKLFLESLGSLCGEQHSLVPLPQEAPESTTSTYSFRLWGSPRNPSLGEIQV
# [3] = molecular target: T1, Neurotensin receptor type 2; experiment: Displacement of [I125]neurotensin from rat NTS2 overexpressed in CHO-k1 cells by competitive binding Assay; assay type: cell-based
# [4] = molecular target: T2, Neurotensin receptor type 2 (Rattus norvegicus) (UniProt Q63384); experiment: Agonist activity at rat NTS2 overexpressed in CHO-k1 cells assessed as calcium mobilization by FLIPR assay relative to SR142948a; assay type: functional, cell-based
# T2 sequence (whole entry): T1 sequence (Q63384 whole entry)
# [5] = molecular target: Neurotensin receptor type 1 (Rattus norvegicus) (UniProt P20789); experiment: Antagonist activity at rat NTS1 overexpressed in CHO-k1 cells assessed as blockade of neurotensin-mediated calcium mobilization after 15 mins by FLIPR assay; assay type: functional, cell-based
# Chain of Neurotensin receptor type 1 (Rattus norvegicus) (P20789 whole entry): as the sequence (P20789 whole entry) above
SMILES,Ki [1] [nM],EC50 ([2]; cho-k1),Ki [3] [nM],EC50 ([2]; read-out: EC50) [nM],Emax [4] [%],Ke [5]
COc1cccc(OC)c1-c1cc(CN[C@H](C(=O)O)C2CCCCC2)nn1-c1ccnc2cc(Cl)ccc12,> 10000,Not Active,> 10000,–,–,–
COc1ccccc1-c1cc(NC(=O)C2(C(=O)O)CCCCC2)nn1-c1ccc(F)cc1,> 25000,–,6340,951,13,inactive
COc1cccc(OC)c1-c1cc(NC(=O)C2(C(=O)O)CCCCC2)nn1-c1ccc(F)cc1,> 25000,–,271,55,10,inactive
COc1cccc(OC)c1-c1cc(NC(=O)C2(C(=O)O)CCCCC2)nn1-c1ccnc2cc(Cl)ccc12,7180,Not Active,140,–,–,–
COc1cccc(OC)c1-c1cc(C(=O)NC2(C(=O)O)CCCCC2)nn1-c1ccnc2cc(Cl)ccc12,177,–,–,–,–,–

# Now from value to compound:
Ki [1] [nM],EC50 ([2]; cho-k1),Ki [3] [nM],EC50 ([2]; read-out: EC50) [nM],Emax [4] [%],Ke [5],SMILES
1210,–,–,–,–,–,COc1cccc(OC)c1-c1cc(C(=O)NC2(C(=O)O)CCCCC2)nn1-c1cccc2ccccc12
10200,Not Active,128,–,–,–,COc1cccc(OC)c1-c1cc(NC(=O)C2(C(=O)O)CCCCC2)nn1-c1cccc2ccccc12
> 25000,–,–,–,–,–,COc1ccccc1-c1cc(C(=O)NC2(C(=O)O)CCCCC2)nn1-c1ccc(F)cc1
